Test results published in patent publication EP4803513A1, “SUBSTITUTED QUINAZOLINE COMPOUND, PREPARATION METHOD THEREFOR, PHARMACEUTICAL COMBINATION THEREOF, AND USE THEREOF” (Hongyun Biotech Co., Ltd., priority 2023, dated 2025).

Experiments:
Format in all cases: cell-based
WT-BaF3 cells = assay: Cell antiproliferative activity assay (CCK-8), WT-BaF3 (broad-spectrum cytotoxicity); conditions: 72 h; WT-BaF3 cells (IL-3 supplemented), CCK-8, 3 days incubation
How it was run: (§1)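 Growth inhibition over 3 days, with compound serially diluted 3-fold from a 10 µM top concentration. Cells seeded at 100,000 cells/mL; WT-BaF3 medium carried 10% WEHI supernatant as the IL-3 source. Viability read by CCK-8 OD450 after 2-4 h; IC50 from blank-subtracted curve fit.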

T47D cells = assay: Cell antiproliferative activity assay (CCK-8), T47D; conditions: Homo sapiens, 72 h, breast cancer cell line T47D, incubation for 3 days
Experimental: BRK-BaF3, WT-BaF3, WEHI cell line, and breast cancer cell line T47D were cultured using RPMI 1640 Basal medium or DMEM (Dulbecco's Modified Eagle Medium) (Shanghai Peiyuan Biotechnology, L220KJ), supplemented with 10% FBS (Gibco, REF 10099-141C) and 1% P/S (Shanghai Peiyuan Biotechnology, S110JV), in an incubator (Thermo 3020) at 37°C with 5% CO2. Cell viability was above 95%. Cells were passaged at a 3:1 ratio every 3-4 days. For WT-BaF3 cells, WEHI cells were first cultured, and their culture supernatant was filtered through a 0.22 µm filter. This supernatant was added at 10% to the regular culture medium to supplement IL-3 required for WT-BaF3 cell proliferation, which served as the culture medium for WT-BaF3. For testing, cells were first collected and counted, then prepared into a cell suspension at 100,000 cells/mL and plated at 100 µL per well. Drug concentrations started from 10 µM and were serially diluted 3:1. After incubation for 3 days, 20 µL of CCK-8 detection reagent (Targetmol C005) was added to each well. After incubation for 2-4 hours, OD450 was measured using a microplate reader (Varioskan LUX, Thermo Scientific). After subtracting the blank background, the curve was fitted and the IC50 was calculated using XLfit software.
In addition, the following table exemplarily lists the IC50 values of some compounds of the present invention against T47D cells.

BRK-BaF3 cells = assay: Cell antiproliferative activity assay (CCK-8), BRK-BaF3; conditions: 72 h, CCK-8, 3 days incubation
How it was run: as §1

Compound | IC50 (WT-BaF3 cells) [nM] | IC50 (T47D cells) [nM] | IC50 (BRK-BaF3 cells) [nM]
Cc1nn(CCCO)cc1Nc1ncc2cc(-c3cccnc3)cc(C(C)C)c2n1 [I-53] | 500 to 2500 | ≤ 500 | ≤ 20
COc1cc(Nc2ncc3cc(-c4nccnc4C)cc(C4CC4)c3n2)c(F)cc1P(C)(C)=O [II-70] | 500 to 2500 | ≤ 500 | 20 to 100
Cc1nn(CCO)cc1Nc1ncc2cc(-c3cccnc3C)cc(C(C)C)c2n1 [I-22] | 500 to 2500 | 500 to 1000 | ≤ 20
Cc1c[nH]c(=O)cc1-c1cc(C(C)C)c2nc(Nc3cn(C)nc3C)ncc2c1 [III-2] | > 2500 | ≤ 500 | ≤ 20
Cc1ccnnc1-c1cc(C2CC2)c2nc(Nc3cn(CCO)nc3C)ncc2c1 [I-119] | 500 to 2500 | 500 to 1000 | ≤ 20
Cc1ccncc1-c1cc(C(C)C)c2nc(Nc3cn(CCO)nc3C)ncc2c1 [I-32] | 500 to 2500 | ≤ 500 | ≤ 20
Cc1nn(CC(C)(C)O)cc1Nc1ncc2cc(-c3cccnc3C)cc(C(C)C)c2n1 [I-57] | 100 to 500 | 500 to 1000 | ≤ 20
Cc1ccnc(F)c1-c1cc(C(C)C)c2nc(Nc3cn(CCO)nc3C)ncc2c1 [I-46] | 500 to 2500 | ≤ 500 | ≤ 20
CCOc1cc(Nc2ncc3cc(-c4nccnc4C)cc(C4CC4)c3n2)ccc1P(C)(C)=O [II-72] | 500 to 2500 | ≤ 500 | ≤ 20
Cc1nn(CCO)cc1Nc1ncc2cc(-c3cncc(F)c3C)cc(C(C)C)c2n1 [I-36] | 500 to 2500 | ≤ 500 | ≤ 20
Cc1nn(C)cc1Nc1ncc2cc(-c3nccnc3C)cc(C(C)C)c2n1 [III-99] | 500 to 2500 | ≤ 500 | ≤ 20
Cc1ccncc1-c1cc(C(C)C)c2nc(Nc3cn(CC(C)(C)O)nc3C)ncc2c1 [I-56] | 500 to 2500 | ≤ 500 | ≤ 20
COc1nc(Nc2ncc3cc(-c4nccnc4C)cc(C4CC4)c3n2)ccc1P(C)(C)=O [II-71] | 500 to 2500 | ≤ 500 | ≤ 20
CC(C)c1cc(-c2cccnc2)cc2cnc(Nc3cn(CCO)nc3Cl)nc12 [I-55] | 500 to 2500 | ≤ 500 | ≤ 20
COc1cc(Nc2ncc3cc(-c4nccnc4C)cc(C(C)C)c3n2)c(F)cc1P(C)(C)=O [II-22] | 500 to 2500 | ≤ 500 | ≤ 20
Cc1nn(CCO)cc1Nc1ncc2cc(-c3c(F)ccnc3N)cc(C(C)C)c2n1 [I-48] | > 2500 | 500 to 1000 | ≤ 20
Cc1c[nH]c(=O)cc1-c1cc(C(C)C)c2nc(Nc3cnn(C4CCN(C)CC4)c3C)ncc2c1 [III-14] | 500 to 2500 | 500 to 1000 | ≤ 20
Cc1ccc(C#N)cc1-c1cc(C(C)C)c2nc(Nc3cn(CCO)nc3C)ncc2c1 [I-162] | 500 to 2500 | ≤ 500 | ≤ 20
Cc1nccnc1-c1cc(C(C)C)c2nc(Nc3cn(CCO)nc3Cl)ncc2c1 [I-98] | 500 to 2500 | 500 to 1000 | ≤ 20
Cc1nn(C)cc1Nc1ncc2cc(-c3cn(C)nc3C)cc(C(C)C)c2n1 [III-87] | 100 to 500 | ≤ 500 | ≤ 20
Cc1nccnc1-c1cc(C(C)C)c2nc(Nc3ccc(P(C)(C)=O)cc3F)ncc2c1 [II-12] | > 2500 | 500 to 1000 | 20 to 100
COc1cc(Nc2ncc3cc(-c4c(C)ncnc4C)cc(C4CC4)c3n2)ccc1P(C)(C)=O [II-62] | 100 to 500 | 500 to 1000 | ≤ 20
Cc1nccnc1-c1cc(C(C)C)c2nc(Nc3cn(C)nc3C(F)F)ncc2c1 [III-102] | > 2500 | 500 to 1000 | ≤ 20
CC(C)c1cc(-c2cccnc2)cc2cnc(Nc3cn(CCO)nc3C(F)F)nc12 [I-54] | 500 to 2500 | 500 to 1000 | ≤ 20
Cc1nn(CCO)cc1Nc1ncc2cc(-c3c[nH]nc3C)cc(C(C)C)c2n1 [I-187] | 500 to 2500 | ≤ 500 | ≤ 20
